Test results as given in PubChem BioAssay AID1117322.
Activity calls are given as the source filed them. No rule for the calls is given here.

Each molecule was assayed on RKO cells viability, CellTiter-Glo ATP luminescence (assay: RKO cell viability reduction, dose response, CellTiter-Glo luminescence (AID 1117322)).

Row | Structure (SMILES) | IC50
1 | CC(C)n1c(/C=C/[C@@H](O)C[C@@H](O)CC(=O)O)c(-c2ccc(F)cc2)c2ccccc21 | 19200 nM (inactive)
2 | O=C(O)C1(C(=O)O)CCC1.[NH2-].[NH2-].[Pt+2] | > 20000 nM (inactive)
3 | O=C1[O][Bi][O]c2ccccc21 | > 20000 nM (inactive)
4 | O=Cc1ccc(O)c(O)c1O | 6230 nM (inactive)
5 | CCCCCCCCCCCCCC[N+](C)(C)C | 147 nM
6 | OCCN1CCN(CC/C=C2/c3ccccc3Sc3ccc(C(F)(F)F)cc32)CC1 | 318 nM
7 | CC(=O)[O][Hg][c]1ccccc1 | 1200 nM
